Assay results published in patent US10154974B1, “Use of abscisic acid for the prevention and treatment of malaria” (The Regents of the University of California, priority 2015, dated 2018).

Columns and labels:
[1] = Whole liver and spleen weights; assay type: in vivo, mice; settings: day 9 post-infection with P. yoelii 17XNL
Procedure: FIG. 20A-C illustrate that ABA supplemented mice have reduced hepatosplenomegaly and evidence of improved liver function. Shown are weights of whole liver (FIG. 20A) and spleen (FIG. 20B) from control and ABA-supplemented mice on day 9 post-infection with P. yoelii 17XNL. Also shown are blood urea nitrogen levels (FIG. 20C) in plasma of uninfected and P. yoelii-infected, control and ABA-supplemented mice on day 11 post-infection. Data were analyzed by unpaired t-test.

[2] = tested on: peroxisome proliferator activated receptor gamma (PPARγ); experiment: PPARγ transcript levels in mouse liver and spleen; assay type: in vivo, mice; settings: day 7 of infection
Procedure: (§1) For mosquito immune gene expression, 20 midguts were dissected from mosquitoes in each treatment group at 1, 2, 4, 6, 8 and 24 hours post-feeding. Midguts were sonicated and stored in Trizol at −20° C. for up to a week before RNA was extracted according to manufacturer's instructions. cDNA synthesis was carried out using QantiTect Reverse Transcription Kit (Qiagen) and 200 ng of cDNA used per reaction for qRT-PCR with Sybr Green (Applied Biosystems). Fold changes in expression levels were calculated using the comparative threshold cycle method. Data were normalized to the housekeeping gene ribosomal protein S7 and to the control treatment. Primers and cycling conditions for AsNOS, defensin, LRIM, TEP1, and APL1 were as previously described (Hauck E S, et al. Microbes Infect. 2013; 15:775-87). For gene expression analysis of mouse liver and spleen, organs were flash frozen after necropsy and stored at −80° C. before RNA was extracted in Trizol and cDNA synthesized. Real-time PCR was performed using TaqMan probe-based expression assays for mouse NOS2, PPARγ (Mm00440940), and β-actin (Applied Biosystems) with volumes and cycling conditions as previously described (Chau et al., Infect Immun, 2013, 81:3515-26). Samples were analyzed in triplicate with 250 ng of cDNA per reaction to confirm uniformity of amplification. […] All expression data were analyzed by one sample t-test.

AsNOS = AsNOS transcript levels in mosquito midgut; assay type: in vivo, Anopheles stephensi; settings: midguts, relative to controls, 4-6 hours post-feeding
Procedure: as §1, with “For gene expression analysis of mouse liver and spleen, organs were flash frozen after necropsy and stored at −80° C. before RNA was extracted in Trizol and cDNA synthesized. Real-time PCR was performed using TaqMan probe-based expression assays for mouse NOS2, PPARγ (Mm00440940), and β-actin (Applied Biosystems) with volumes and cycling conditions as previously described (Chau et al., Infect Immun, 2013, 81:3515-26).” left out
Transcript levels of a panel of immune genes previously described to play a role in the mosquito immune response to malaria parasites were examined. […] Mosquitoes were provided with a P. falciparum-infected bloodmeal supplemented with 100 nM ABA or with an equivalent volume of diluent as control, then analyzed at 1-24 hours post feeding.

[3] = Small animal chemistry panel of plasma; assay type: in vivo, mice
Procedure: FIG. 19A-C through FIG. 28A-B and Tables 6-1 through 6-4 support the use of ABA for treating Plasmodium-infected mammalian subjects. In the following tables, 4-5 mice were used per treatment, and data were analyzed by unpaired t-test. […] Abbreviations for Tables 6-3 and 6-4 are as follows: WBC=white blood cells, RBCs=red blood cells, MCV=mean corpuscular volume, MCH=mean corpuscular hemoglobin, MCHC=mean corpuscular hemoglobin concentration, RDW=red blood cell distribution width, MPV=mean platelet volume.

[4] = Daily monitoring of water consumption, body weight and condition of mice; assay type: in vivo; settings: infected CD1 mice
Procedure: 6-8 week old female CD1 mice (Jackson) were housed four to a cage and provided with unsupplemented water or water supplemented with 2.56 mM (±)-abscisic acid (CAS Registry Number 14375-45-2) obtained from Sigma-Aldrich (Catalog No. A1049). Water and supplemented water were changed daily. On day 3 of supplementation, mice were injected intraperitoneally with 5×10^6 P. yoelii 17XNL-infected RBCs. Mouse weight, water consumption per cage, and parasitemia were monitored daily. Parasitemia was determined from thin blood films stained with Giemsa. Parasitemia was measured as the percentage of infected RBCs divided by total RBCs, while gametocytemia was measured as the proportion of gametocyte-containing RBCs of total infected RBCs. Four mice were used per group in replicated studies. Daily parasitemias and gametocytemias were analyzed by unpaired t-test.

P. falciparum = P. falciparum infection of A. stephensi fed a supplemented infected bloodmeal; assay type: in vivo; settings: for reduction of infection prevalence in A. stephensi: relative to control
Procedure: For P. falciparum infections A. stephensi were fed on a 1:1 ratio of P. falciparum-infected RBCs containing a treatment or diluent control and provided in a Hemotek Insect Feeding System (Discovery Workshops). ABA was eluted in 100% ethanol and stored at −20 C for up to 6 months. ABA stock was diluted with PBS and added into blood immediately before feeding for final concentrations of 10 nM and 100 nM. For L-NAME feeds mosquitoes were maintained on sugar cubes and water pads containing 1 mg/mL L-NAME for 72 hours before the feed and throughout the course of infection. Infection prevalence data were analyzed by Fisher's Exact Test. Oocyst intensities were analyzed by Mann-Whitney test.

P. yoelii 17XNL = experiment: P. yoelii transmission from ABA-supplemented mice to A. stephensi (oocyst counts); assay type: in vivo
Procedure: Anopheles stephensi Liston (Indian wild-type strain) were reared and maintained at 27° C. and 75% humidity. For all feeding experiments, 3-5-day-old female mosquitoes were maintained on water pads for 24 hours and then allowed to bloodfeed for 30 minutes on control or ABA-supplemented P. yoelii 17XNL-infected mice. Cohorts of 50 mosquitoes were allowed to feed on each mouse at 5 days post-infection. Immediately after feeding non-engorged mosquitoes were removed. Ten days post-feeding, midguts were dissected, stained with 0.5% mercurochrome, and oocysts counted by microscopy.

[5] = uninfected and infected mice, day 11 post-infection

SMILES: CC1=CC(=O)CC(C)(C)[C@@]1(O)/C=C/C(C)=C\C(=O)O (racemic) [ABA, (2Z,4E)-5-[(1S)-1-hydroxy-2,6,6-trimethyl-4-oxocyclohex-2-en-1-yl]-3-methylpenta-2,4-dienoic acid]
- hepatosplenomegaly (weights of whole liver and spleen) [1]: reduced
- transcript levels of PPARγ [2]: increased
- AsNOS transcript levels induction (AsNOS): up to 13 fold
- alanine transaminase, Mean ([3]; P. yoelii-infected mice): 30.23 U/L
- albumin, Mean ([3]; P. yoelii-infected mice): 2.25 g/dL
- aspartate transaminase, Mean ([3]; P. yoelii-infected mice): 194.7 U/L
- creatine, Mean ([3]; P. yoelii-infected mice): 0.18 mg/dL
- phosphorus, Mean ([3]; P. yoelii-infected mice): 8.43 mg/dL
- total bilirubin, Mean ([3]; P. yoelii-infected mice): 0.26 mg/dL
- total protein, Mean ([3]; P. yoelii-infected mice): 4.12 g/dL
- liver function (blood urea nitrogen levels in plasma) ([3]; day 11 post-infection): improved
- plasma indicators of organ health ([3]; uninfected and P. yoelii-infected mice): no effect
- glucose levels in mouse plasma [3, 5]: does not alter
- insulin levels in mouse plasma [3, 5]: does not alter
- alanine transaminase, Mean ([3]; uninfected mice): 176.8 U/L
- albumin, Mean ([3]; uninfected mice): 3.23 g/dL
- aspartate transaminase, Mean ([3]; uninfected mice): 1437 U/L
- blood urea nitrogen, Mean ([3]; uninfected mice): 28.76 mg/dL
- creatine, Mean ([3]; uninfected mice): 0.21 mg/dL
- phosphorus, Mean ([3]; uninfected mice): 10.07 mg/dL
- total bilirubin, Mean ([3]; uninfected mice): 0.06 mg/dL
- total protein, Mean ([3]; uninfected mice): 4.67 g/dL
- lethargy at necropsy ([4]; day 7, compared to controls): less lethargic
- daily weight change ([4]; over the course of infection): not different
- reduction of infection prevalence in A. stephensi (P. falciparum; 10 nM ABA in bloodmeal): 30%
- mean oocysts per midgut (P. falciparum; 10 nM ABA, among infected mosquitoes (controls 2.1)): 1.6
- reduction of infection prevalence in A. stephensi (P. falciparum; 100 nM ABA in bloodmeal): 36%
- mean oocysts per midgut (P. yoelii 17XNL; A. stephensi fed on ABA-supplemented mice on day 5): 12
- infection prevalence of mosquitoes (P. yoelii 17XNL; A. stephensi fed on ABA-supplemented mice on day 5, dissected ten days later): 60.9%
- reduction in prevalence (P. yoelii 17XNL; vs mosquitoes fed on control mice): 31.4%
